Results taken from publication PMC10983009 (Journal of Medicinal Chemistry, 2024).
“And” between values parts separate entries of the source, which are not always exact repeats. Equal values may be shown once. Read-outs that look alike come from different tables or passages of the source. Marks after values point to notes of the source that are not given here. Values belong to the compound of their own block, whether it stands above or below them.

Legend:
DDR1(h) = DDR1(h) (Homo sapiens, UniProt Q08345); conditions: at 1 μM; cited from earlier work
Caco-2 cells = conditions: literature value, cited from earlier work
[1] = compound remaining, literature value; cited from earlier work
[2] = compound remaining, literature value; cited from earlier work; remark: listed apart in the source
TNIK(h) = TNIK(h) (Homo sapiens, UniProt Q9UKE5); conditions: at 1 μM; cited from earlier work
[3] = In vivo PK exposure in mouse model; conditions: male, NOD-SCID, po, 25 mg/kg
[4] = Liver microsomal metabolic stability assay; assay type: in vitro ADME, CD-1 mouse (male); conditions: compound remaining after 60 min at 37 °C, 1 μM
[5] = target: Full Kinase Panel (422-member kinase set); assay: Eurofins Full Kinase Panel KinaseProfiler, whole panel; assay type: biochemical; conditions: at 1 μM
[6] = Caco-2 permeability assay; assay type: in vitro ADME; conditions: human, Caco-2, pH 7.4
[7] = Liver microsomal metabolic stability assay; assay type: in vitro ADME, human; conditions: compound remaining after 60 min at 37 °C, 1 μM
ALK4/ACVR1β = target: T1, ALK4/ACVR1β (Homo sapiens, UniProt P36896); assay: Radiometric in vitro kinase assay
T1 sequence (P36896 24-505): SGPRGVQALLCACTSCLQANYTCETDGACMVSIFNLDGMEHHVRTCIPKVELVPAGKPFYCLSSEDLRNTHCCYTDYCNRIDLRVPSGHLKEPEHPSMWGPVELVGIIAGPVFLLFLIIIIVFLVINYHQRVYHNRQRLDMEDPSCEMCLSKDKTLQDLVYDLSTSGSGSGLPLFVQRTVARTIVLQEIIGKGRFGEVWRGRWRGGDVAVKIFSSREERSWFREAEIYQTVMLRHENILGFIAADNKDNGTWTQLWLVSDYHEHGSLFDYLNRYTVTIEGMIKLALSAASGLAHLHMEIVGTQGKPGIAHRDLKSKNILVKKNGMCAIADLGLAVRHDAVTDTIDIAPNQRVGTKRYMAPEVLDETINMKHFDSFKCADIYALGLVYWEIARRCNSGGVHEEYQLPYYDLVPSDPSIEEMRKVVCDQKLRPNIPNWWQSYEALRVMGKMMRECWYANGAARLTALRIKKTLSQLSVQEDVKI

[8] = system: H3.3K27M, ACVR1^R206H mutant HSJD-DIPG-007 cells; conditions: 25 mg/kg for 28 days; cited from earlier work

Sequence of DDR1(h) (Q08345 19-913): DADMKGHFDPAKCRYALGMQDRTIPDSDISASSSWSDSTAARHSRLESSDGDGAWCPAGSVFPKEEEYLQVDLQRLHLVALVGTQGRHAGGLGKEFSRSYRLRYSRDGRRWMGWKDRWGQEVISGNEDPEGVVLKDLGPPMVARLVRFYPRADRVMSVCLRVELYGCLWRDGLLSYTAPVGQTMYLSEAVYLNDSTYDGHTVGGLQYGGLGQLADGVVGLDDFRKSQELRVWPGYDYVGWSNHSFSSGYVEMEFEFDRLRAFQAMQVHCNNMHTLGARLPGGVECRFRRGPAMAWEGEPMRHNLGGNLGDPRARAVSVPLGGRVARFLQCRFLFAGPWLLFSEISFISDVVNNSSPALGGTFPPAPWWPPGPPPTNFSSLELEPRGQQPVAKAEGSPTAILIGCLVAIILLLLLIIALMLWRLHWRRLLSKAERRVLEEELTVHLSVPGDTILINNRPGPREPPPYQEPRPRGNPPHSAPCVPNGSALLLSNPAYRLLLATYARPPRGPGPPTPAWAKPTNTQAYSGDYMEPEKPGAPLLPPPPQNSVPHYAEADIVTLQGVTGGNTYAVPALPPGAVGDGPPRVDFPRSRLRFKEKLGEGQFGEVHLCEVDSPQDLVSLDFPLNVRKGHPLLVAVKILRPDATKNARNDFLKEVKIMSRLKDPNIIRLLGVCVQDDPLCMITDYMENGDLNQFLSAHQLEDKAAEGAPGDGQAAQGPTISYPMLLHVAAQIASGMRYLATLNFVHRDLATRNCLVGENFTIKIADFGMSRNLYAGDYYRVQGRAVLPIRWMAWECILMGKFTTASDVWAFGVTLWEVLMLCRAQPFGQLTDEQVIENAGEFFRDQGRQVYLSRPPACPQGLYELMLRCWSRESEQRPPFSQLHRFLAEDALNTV
Sequence of TNIK(h) (Q9UKE5 whole entry): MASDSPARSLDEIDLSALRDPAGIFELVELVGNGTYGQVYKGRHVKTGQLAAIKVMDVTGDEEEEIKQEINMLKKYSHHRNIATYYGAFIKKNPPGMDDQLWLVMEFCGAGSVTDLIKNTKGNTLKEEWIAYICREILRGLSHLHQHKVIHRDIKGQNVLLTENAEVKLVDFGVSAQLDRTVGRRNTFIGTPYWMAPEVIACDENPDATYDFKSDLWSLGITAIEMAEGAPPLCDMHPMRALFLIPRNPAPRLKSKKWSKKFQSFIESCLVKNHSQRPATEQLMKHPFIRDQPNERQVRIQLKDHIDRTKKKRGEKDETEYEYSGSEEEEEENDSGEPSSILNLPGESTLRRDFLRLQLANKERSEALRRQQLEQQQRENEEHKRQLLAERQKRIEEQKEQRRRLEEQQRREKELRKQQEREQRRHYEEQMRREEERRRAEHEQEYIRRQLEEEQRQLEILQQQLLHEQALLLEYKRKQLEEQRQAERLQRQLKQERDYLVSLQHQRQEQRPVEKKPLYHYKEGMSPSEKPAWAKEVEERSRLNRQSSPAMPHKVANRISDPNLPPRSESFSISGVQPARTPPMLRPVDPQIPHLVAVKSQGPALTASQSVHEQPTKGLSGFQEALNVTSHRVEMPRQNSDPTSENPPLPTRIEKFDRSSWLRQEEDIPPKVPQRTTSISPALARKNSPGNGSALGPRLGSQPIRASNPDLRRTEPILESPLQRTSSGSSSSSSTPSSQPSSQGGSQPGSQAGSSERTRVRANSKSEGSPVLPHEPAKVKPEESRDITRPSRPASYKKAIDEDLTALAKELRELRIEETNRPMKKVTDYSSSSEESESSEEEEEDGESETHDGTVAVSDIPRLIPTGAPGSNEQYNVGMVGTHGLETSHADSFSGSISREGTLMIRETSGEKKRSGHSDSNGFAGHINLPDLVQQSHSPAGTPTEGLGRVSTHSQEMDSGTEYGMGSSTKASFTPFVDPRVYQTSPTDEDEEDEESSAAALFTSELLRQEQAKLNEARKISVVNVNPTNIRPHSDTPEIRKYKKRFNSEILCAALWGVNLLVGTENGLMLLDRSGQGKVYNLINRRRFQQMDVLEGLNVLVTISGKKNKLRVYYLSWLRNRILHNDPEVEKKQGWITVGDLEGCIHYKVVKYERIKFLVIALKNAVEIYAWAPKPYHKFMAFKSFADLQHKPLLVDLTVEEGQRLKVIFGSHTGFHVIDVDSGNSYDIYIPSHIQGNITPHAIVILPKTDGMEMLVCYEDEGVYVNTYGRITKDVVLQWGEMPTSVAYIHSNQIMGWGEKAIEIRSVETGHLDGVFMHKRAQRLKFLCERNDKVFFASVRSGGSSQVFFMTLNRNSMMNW

SMILES: COc1cc(-c2cncc(-c3ccc(N4CCNCC4)cc3)c2C)cc(OC)c1OC [Compound M4K2009]
- inhibition of DDR1 (DDR1(h)): almost complete inhibition
- Caco-2 Permeability Assay Papp_AB (Caco-2 cells; A to B): 5.4 ^a 10^–6 cm/s
- Caco-2 Permeability Assay Papp_BA (Caco-2 cells; B to A): 1.5 ^a 10^–6 cm/s
- Microsomal Stability Assay MLM (%) [1]: 65 ^a % and 65%
- Microsomal Stability Assay HLM (%) [2]: 71 ^a % and 71%
- inhibition of TNIK (TNIK(h)): almost complete inhibition

SMILES: COc1cc(-c2cc(-c3ccc(N4CCNCC4)cc3)cnc2C)cc(OC)c1OC [LDN-214117]
- survival of mice bearing orthotopic xenografts [8]: extended survival

More lines, now with the values ahead:

- concentration at 24 h [3]: 0 nM
SMILES: COc1cc(-c2cncc3c2CCOc2cc(N4CCN(C)CC4)ccc2-3)cc(OC)c1OC [Compound M4K2281, 9-(4-Methylpiperazin-1-yl)-4-(3,4,5-trimethoxyphenyl)-5,6-dihydrobenzo[2,3]oxepino[4,5-c]pyridine]

- Microsomal Stability Assay MLM (%) [4]: > 70%
- kinases inhibited by more than 50% [5]: 3%
- recovery at 2 h, 5 μM [6]: < 15%
- Microsomal Stability Assay HLM (%) [7]: > 70%
- IC50 (ALK4/ACVR1β): 1.18 µM
SMILES: COc1cc(-c2cncc3c2CN(C)Cc2cc(N4CCNCC4)ccc2-3)cc(OC)c1OC [Compound M4K2304, 6-Methyl-9-(piperazin-1-yl)-4-(3,4,5-trimethoxyphenyl)-6,7-dihydro-5H-benzo[c]pyrido[3,4-e]azepine]

- recovery at 2 h, 5 μM [6]: < 15%
SMILES: COc1cc(-c2cncc3c2CN(C)Cc2cc(N4CCN(C)CC4)ccc2-3)cc(OC)c1OC [Compound M4K2306, 6-Methyl-9-(4-methylpiperazin-1-yl)-4-(3,4,5-trimethoxyphenyl)-6,7-dihydro-5H-benzo[c]pyrido[3,4-e]azepine]
